Data: publication PMC6458995, “MAP4K4 Inhibition Promotes Survival of Human Stem Cell-Derived Cardiomyocytes and Reduces Infarct Size In Vivo” (Cell Stem Cell, 2019)

Assays:
Test in all cases: Dundee kinase panel
Type in all cases: biochemical
Conditions in all cases: for remaining activity at 1 µM: read-out: residual activity
[1] = biological target: T1, BTK (Homo sapiens, UniProt Q06187)
T1 construct: lines 1-140) and Reaction Biology
Procedure: (§1) Compounds were screened at 1 μM. For key hits, pIC50 values were then determined by HTRF as above. […] Stability in mouse and human liver microsomes was determined by Cyprotex.

[2] = biological target: T2, EIF2AK3 (Homo sapiens, UniProt Q9NZJ5)
T2 construct: lines 1-140) and Reaction Biology
T2 sequence (Q9NZJ5 30-1116): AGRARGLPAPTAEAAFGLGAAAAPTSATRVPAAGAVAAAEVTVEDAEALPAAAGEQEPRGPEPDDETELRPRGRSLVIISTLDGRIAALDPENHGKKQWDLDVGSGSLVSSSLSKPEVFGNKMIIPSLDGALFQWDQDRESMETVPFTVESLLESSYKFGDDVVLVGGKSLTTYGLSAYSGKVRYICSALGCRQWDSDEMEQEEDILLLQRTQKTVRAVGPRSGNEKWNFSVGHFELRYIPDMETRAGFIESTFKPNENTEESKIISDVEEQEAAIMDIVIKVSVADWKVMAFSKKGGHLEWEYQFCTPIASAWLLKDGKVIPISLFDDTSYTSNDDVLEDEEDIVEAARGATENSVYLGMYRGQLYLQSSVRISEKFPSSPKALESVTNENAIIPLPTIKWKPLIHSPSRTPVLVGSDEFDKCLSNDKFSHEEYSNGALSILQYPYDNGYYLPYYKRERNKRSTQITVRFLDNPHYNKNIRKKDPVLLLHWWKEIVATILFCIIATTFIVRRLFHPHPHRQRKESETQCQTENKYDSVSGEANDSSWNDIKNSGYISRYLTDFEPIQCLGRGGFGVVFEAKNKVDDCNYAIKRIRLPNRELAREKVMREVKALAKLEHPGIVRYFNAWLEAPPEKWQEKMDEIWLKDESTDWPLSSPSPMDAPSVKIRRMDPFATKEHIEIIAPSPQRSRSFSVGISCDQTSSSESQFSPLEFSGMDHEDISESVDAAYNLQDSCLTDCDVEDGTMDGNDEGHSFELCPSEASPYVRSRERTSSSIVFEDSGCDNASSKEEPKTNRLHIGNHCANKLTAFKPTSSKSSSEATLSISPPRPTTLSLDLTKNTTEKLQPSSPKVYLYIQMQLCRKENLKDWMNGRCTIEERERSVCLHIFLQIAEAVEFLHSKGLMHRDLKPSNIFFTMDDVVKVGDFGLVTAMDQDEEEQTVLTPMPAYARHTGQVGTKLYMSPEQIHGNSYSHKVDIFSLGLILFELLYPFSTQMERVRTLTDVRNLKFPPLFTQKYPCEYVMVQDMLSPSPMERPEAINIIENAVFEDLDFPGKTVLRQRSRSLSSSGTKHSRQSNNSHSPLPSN
Procedure: as §1

[3] = biological target: T3, IGF-1R (Homo sapiens, UniProt P08069)
T3 construct: lines 1-140) and Reaction Biology
Procedure: as §1

[4] = biological target: T4, LCK (Homo sapiens, UniProt P06239)
T4 construct: lines 1-140) and Reaction Biology
Procedure: as §1

[5] = biological target: T5, MAPKAP-K2 (Homo sapiens, UniProt P49137)
T5 construct: lines 1-140) and Reaction Biology
Procedure: as §1

[6] = biological target: T6, MLK1 (Homo sapiens, UniProt P80192)
T6 construct: lines 1-140) and Reaction Biology
Procedure: as §1

[7] = biological target: T7, MST3 (Homo sapiens, UniProt Q9Y6E0)
T7 construct: lines 1-140) and Reaction Biology
Procedure: as §1

[8] = biological target: T8, NUAK1 (Homo sapiens, UniProt O60285)
T8 construct: lines 1-140) and Reaction Biology
T8 sequence (O60285 1-661): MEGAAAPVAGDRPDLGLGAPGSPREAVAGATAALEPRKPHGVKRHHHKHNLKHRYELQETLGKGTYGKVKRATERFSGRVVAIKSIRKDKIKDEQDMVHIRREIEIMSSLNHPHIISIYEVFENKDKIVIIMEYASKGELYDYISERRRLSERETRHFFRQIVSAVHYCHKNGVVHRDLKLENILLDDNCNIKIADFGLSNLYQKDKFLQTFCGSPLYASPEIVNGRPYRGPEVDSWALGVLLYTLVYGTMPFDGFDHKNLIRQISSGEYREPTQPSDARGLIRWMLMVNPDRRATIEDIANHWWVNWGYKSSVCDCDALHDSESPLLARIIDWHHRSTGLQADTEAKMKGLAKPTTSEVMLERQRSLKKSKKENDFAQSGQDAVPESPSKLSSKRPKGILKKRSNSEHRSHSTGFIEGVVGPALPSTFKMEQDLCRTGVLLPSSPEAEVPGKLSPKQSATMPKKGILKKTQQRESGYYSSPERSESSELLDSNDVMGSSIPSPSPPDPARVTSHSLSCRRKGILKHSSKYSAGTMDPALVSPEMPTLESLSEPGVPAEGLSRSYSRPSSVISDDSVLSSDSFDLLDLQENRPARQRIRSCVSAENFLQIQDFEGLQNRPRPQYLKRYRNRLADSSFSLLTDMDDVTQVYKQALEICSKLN
Procedure: as §1

[9] = biological target: T9, PKA (Homo sapiens, UniProt P17612)
T9 construct: lines 1-140) and Reaction Biology
Procedure: as §1

[10] = biological target: T10, PKCa (Homo sapiens, UniProt P17252)
T10 construct: lines 1-140) and Reaction Biology
Procedure: as §1

[11] = biological target: T11, TESK1 (Homo sapiens, UniProt Q15569)
T11 construct: lines 1-140) and Reaction Biology
Procedure: as §1

T5 sequence (P49137 whole entry): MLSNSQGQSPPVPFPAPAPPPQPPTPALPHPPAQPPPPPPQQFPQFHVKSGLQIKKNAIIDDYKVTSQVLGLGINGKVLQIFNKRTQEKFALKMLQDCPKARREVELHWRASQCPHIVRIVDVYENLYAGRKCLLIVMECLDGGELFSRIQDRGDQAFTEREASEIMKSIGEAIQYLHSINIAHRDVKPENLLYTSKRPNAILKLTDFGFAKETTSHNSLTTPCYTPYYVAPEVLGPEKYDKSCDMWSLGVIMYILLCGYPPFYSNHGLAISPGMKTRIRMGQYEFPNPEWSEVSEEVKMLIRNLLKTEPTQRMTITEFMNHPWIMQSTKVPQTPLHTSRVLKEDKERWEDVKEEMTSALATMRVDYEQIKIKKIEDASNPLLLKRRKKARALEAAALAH
T7 sequence (Q9Y6E0 whole entry): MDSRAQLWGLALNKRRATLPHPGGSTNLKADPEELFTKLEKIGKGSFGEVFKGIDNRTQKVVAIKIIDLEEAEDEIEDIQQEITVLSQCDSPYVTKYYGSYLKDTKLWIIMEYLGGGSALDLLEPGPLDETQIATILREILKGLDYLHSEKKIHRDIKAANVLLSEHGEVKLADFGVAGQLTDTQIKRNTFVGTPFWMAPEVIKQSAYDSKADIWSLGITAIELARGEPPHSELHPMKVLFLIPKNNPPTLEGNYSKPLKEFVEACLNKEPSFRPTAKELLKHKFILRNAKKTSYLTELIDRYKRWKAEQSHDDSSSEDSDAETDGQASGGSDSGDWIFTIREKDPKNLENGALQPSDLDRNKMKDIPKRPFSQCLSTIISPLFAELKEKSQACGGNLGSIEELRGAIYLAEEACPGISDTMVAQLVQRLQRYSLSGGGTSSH
T4 sequence (P06239 whole entry): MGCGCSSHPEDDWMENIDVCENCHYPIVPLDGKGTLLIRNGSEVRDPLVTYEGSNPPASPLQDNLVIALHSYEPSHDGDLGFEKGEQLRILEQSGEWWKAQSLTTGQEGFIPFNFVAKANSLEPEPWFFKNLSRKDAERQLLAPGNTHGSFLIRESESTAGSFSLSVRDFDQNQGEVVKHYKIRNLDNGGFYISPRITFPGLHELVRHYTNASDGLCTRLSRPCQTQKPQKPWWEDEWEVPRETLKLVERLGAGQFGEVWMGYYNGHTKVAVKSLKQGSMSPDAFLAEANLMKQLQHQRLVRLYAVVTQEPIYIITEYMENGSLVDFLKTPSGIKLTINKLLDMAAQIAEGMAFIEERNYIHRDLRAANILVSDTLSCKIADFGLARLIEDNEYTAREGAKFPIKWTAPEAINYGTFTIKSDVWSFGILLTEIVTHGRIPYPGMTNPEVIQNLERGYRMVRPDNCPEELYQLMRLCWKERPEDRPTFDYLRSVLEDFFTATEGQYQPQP
T11 sequence (Q15569 whole entry): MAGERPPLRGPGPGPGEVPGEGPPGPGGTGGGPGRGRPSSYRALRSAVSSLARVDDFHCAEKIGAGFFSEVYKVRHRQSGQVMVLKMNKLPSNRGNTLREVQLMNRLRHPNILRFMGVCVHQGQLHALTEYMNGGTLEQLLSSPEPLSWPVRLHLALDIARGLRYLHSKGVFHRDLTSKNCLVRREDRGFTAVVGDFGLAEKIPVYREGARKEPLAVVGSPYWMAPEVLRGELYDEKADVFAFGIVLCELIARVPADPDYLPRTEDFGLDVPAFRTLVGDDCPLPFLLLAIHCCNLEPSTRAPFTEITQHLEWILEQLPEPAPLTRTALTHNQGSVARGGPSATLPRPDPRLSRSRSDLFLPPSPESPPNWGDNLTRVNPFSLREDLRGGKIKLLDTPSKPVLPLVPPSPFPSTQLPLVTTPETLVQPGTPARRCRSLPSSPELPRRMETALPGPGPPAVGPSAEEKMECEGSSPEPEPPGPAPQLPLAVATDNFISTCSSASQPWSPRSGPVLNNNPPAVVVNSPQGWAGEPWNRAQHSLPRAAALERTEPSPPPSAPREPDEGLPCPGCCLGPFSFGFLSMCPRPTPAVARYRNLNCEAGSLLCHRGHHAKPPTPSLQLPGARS
T6 sequence (P80192 whole entry): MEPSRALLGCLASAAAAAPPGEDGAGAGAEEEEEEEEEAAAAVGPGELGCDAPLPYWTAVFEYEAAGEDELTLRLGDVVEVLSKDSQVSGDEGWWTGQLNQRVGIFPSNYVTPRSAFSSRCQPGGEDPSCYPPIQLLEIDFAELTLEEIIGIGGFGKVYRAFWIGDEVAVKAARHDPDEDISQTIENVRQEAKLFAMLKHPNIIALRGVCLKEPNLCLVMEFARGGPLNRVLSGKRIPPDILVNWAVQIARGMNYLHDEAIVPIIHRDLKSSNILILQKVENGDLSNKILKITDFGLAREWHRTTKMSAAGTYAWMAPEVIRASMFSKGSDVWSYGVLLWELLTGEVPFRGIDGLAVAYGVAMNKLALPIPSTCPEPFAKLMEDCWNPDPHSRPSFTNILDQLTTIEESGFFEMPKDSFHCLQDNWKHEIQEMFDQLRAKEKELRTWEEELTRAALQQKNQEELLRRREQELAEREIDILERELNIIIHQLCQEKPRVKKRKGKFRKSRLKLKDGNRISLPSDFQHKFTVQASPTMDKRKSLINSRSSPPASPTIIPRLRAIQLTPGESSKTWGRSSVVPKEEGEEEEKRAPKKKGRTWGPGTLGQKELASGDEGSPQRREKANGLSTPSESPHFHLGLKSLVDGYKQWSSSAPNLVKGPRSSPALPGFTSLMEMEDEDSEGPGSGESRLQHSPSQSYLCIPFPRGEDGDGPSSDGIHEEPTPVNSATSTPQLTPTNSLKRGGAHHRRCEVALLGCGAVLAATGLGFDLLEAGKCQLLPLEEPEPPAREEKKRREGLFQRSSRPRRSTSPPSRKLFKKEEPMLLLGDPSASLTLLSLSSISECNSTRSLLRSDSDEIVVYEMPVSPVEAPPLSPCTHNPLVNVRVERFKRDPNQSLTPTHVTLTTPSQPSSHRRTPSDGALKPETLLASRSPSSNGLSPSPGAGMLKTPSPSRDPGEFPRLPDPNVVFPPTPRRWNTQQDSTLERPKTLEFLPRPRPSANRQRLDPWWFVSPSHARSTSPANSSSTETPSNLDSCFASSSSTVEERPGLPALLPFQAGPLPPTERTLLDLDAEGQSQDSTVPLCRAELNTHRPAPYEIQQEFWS
T1 sequence (Q06187 whole entry): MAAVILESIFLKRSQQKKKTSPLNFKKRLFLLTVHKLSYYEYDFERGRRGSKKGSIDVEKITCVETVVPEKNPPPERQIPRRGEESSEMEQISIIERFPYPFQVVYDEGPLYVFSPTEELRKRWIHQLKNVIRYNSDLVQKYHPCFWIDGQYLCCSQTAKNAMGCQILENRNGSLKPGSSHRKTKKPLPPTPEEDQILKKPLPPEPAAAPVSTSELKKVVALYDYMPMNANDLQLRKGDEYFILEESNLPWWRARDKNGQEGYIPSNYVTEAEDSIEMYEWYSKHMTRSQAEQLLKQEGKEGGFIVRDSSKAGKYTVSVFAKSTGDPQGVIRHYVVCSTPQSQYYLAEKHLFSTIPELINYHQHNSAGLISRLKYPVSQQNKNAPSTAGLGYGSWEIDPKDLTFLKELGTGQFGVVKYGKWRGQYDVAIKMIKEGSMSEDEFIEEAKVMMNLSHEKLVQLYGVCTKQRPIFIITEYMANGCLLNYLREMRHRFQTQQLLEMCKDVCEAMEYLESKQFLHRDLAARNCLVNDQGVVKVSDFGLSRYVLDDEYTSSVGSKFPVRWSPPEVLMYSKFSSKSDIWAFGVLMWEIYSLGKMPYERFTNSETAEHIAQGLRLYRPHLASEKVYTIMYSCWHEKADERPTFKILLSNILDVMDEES

Compound: COCCOc1ccc(-c2cn(-c3ccccc3)c3nc[nH]c(=O)c23)cc1 [DMX-5804, 5-[4-(2-methoxy-ethoxy)-phenyl]-7-phenyl-3,7-dihydro-pyrrolo[2,3-d]pyrimidin-4-one]
- remaining activity at 1 µM [1]: 118%
- remaining activity at 1 µM [2]: 110%
- remaining activity at 1 µM [3]: 112%
- remaining activity at 1 µM [4]: 109%
- remaining activity at 1 µM [5]: 105%
- remaining activity at 1 µM [6]: 9%
- remaining activity at 1 µM [7]: 95%
- remaining activity at 1 µM [8]: 14%
- remaining activity at 1 µM [9]: 109%
- remaining activity at 1 µM [10]: 116%
- remaining activity at 1 µM [11]: 90%

Compound: Oc1ncnc2c1c(-c1ccccc1)cn2-c1ccccc1 [F1386-0303, 5,7-diphenyl-7H-pyrrolo[2,3-d]pyrimidin-4-ol]
- remaining activity at 1 µM [1]: 130%
- remaining activity at 1 µM [2]: 99%
- remaining activity at 1 µM [3]: 108%
- remaining activity at 1 µM [4]: 112%
- remaining activity at 1 µM [5]: 101%
- remaining activity at 1 µM [6]: 43%
- remaining activity at 1 µM [7]: 120%
- remaining activity at 1 µM [8]: 48%
- remaining activity at 1 µM [9]: 103%
- remaining activity at 1 µM [10]: 70%
- remaining activity at 1 µM [11]: 101%

Compound: Nc1ncc(C(=O)NC2CN(C(=O)C3CC3)C2)c2ccc(-c3cccc(F)c3)nc12 [GNE-495]
- residual activity ([1]; 1 μM): 82%
- residual activity ([2]; 1 μM): 100%
- residual activity ([3]; 1 μM): 85%
- residual activity ([4]; 1 μM): 104%
- residual activity ([5]; 1 μM): 101%
- residual activity ([6]; 1 μM): 25%
- residual activity ([7]; 1 μM): 72%
- residual activity ([8]; 1 μM): 49%
- residual activity ([9]; 1 μM): 95%
- residual activity ([10]; 1 μM): 50%
- residual activity ([11]; 1 μM): 72%

Compound: O=C1Nc2ccc(I)cc2/C1=C/c1cc(Br)c(O)c(Br)c1 [GW5074]
- remaining activity at 1 µM [1]: 75%
- remaining activity at 1 µM [2]: 85%
- remaining activity at 1 µM [3]: 88%
- remaining activity at 1 µM [4]: 58%
- remaining activity at 1 µM [5]: 81%
- remaining activity at 1 µM [6]: 85%
- remaining activity at 1 µM [7]: 29%
- remaining activity at 1 µM [8]: 63%
- remaining activity at 1 µM [9]: 83%
- remaining activity at 1 µM [10]: 85%
- remaining activity at 1 µM [11]: 32%

Compound: O=C1Cc2c([nH]c3ccc(Br)cc23)-c2ccccc2N1 [Kenpaullone]
- remaining activity at 1 µM [1]: 64%
- remaining activity at 1 µM [2]: 94%
- remaining activity at 1 µM [3]: 74%
- remaining activity at 1 µM [5]: 89%
- remaining activity at 1 µM [6]: 99%
- remaining activity at 1 µM [7]: 67%
- remaining activity at 1 µM [8]: 79%
- remaining activity at 1 µM [9]: 105%
- remaining activity at 1 µM [10]: 94%
- remaining activity at 1 µM [11]: 19%
